Measured values reported in patent US20200283728A1, “MODIFIED T CELLS AND USES THEREOF” (MUSC FOUNDATION FOR RESEARCH DEVELOPMENT, priority 2017, published 2020).

Key:
Format in all cases: cell-based, mouse
[1] = system: ICOS-stimulated Th17 cells; experiment: Growth and survival of ICOS-stimulated Th17 cells expanded with inhibitors; details: in vitro expansion, day 7
Protocol: Expansion of Th17 cells with Wnt/β-catenin and PI3K inhibitors in vitro: […] splenocytes were activated with irradiated (10Gy) C57BL/6 splenocytes pulsed with […] peptide (1 μM) added at a 5:1 ratio in 24-well plates (1 mL media containing 1.5×10^6 cells/well). […] splenocytes were co-stimulated with soluble ICOS agonist (Clone 398.4A, BioLegend) and polarized toward Th17 phenotype as describe above. For in vitro expansion from day 0 of culture 10 μM Ly294002 (Cayman Chemical) or 10 μM CAL-101 (Selleckchem) and/or 60 μM indomethacin (Sigma-Aldrich) was added. Also dimethylosulfoxide 0.01% (Sigma-Aldrich) was added as a control. Th17 cultures were also supplemented with hrIL-2 (100 IU/mL) and rmIL-23 ([…]; R&D). Medium, including cytokines and inhibitors was refreshed every 2-3 days.

[2] = system: ICOS-activated Th17 cells; experiment: Memory and regulatory phenotype of ICOS-stimulated Th17 cells expanded with inhibitors (flow cytometry); details: day 8 in vitro
Protocol: Expansion of Th17 cells with Wnt/β-catenin and PI3K inhibitors in vitro: TRP-1 splenocytes were activated with irradiated (10Gy) C57BL/6 splenocytes pulsed with TRP-1 peptide (1 μM) added at a 5:1 ratio in 24-well plates (1 mL media containing 1.5×10^6 cells/well). TRP-1 splenocytes were co-stimulated with soluble ICOS agonist (Clone 398.4A, BioLegend) and polarized toward Th17 phenotype as describe above. For in vitro expansion from day 0 of culture 10 μM Ly294002 (Cayman Chemical) or 10 μM CAL-101 (Selleckchem) and/or 60 μM indomethacin (Sigma-Aldrich) was added. Also dimethylosulfoxide 0.01% (Sigma-Aldrich) was added as a control. Th17 cultures were also supplemented with hrIL-2 (100 IU/mL) and rmIL-23 ([…]; R&D). Medium, including cytokines and inhibitors was refreshed every 2-3 days.
Surface staining of Th17 cells was performed with anti-CD4-APCCy7, anti-Vβ14-FITC (BD Biosciences) anti-CD62L-APC, anti-CD44-PerCPCy5.5, anti-CCR6-PE, anti-CD69-PECy7, anti-CCR7-PE, anti-CD27-PE, anti-CD28-PerCPCy5.5, anti-ICOS-PE and anti-CD25-PECy7/FITC (BioLegend) and viability stain (Invitrogen) on day 8. For all intracellular staining of cytokines (anti-IL-17 PerCPCy5.5, anti-IFN-γ-v450, anti-IL-2-FITC, anti-IL-21-APC, anti-IL-22-PE, anti-TNF-α-FITC; BioLegend) and transcription factors (anti-RORγt-APC, anti-cMaf-PerCPCy5.5, anti-STAT-3-PE, anti-FoxP3-FITC/PE, anti-T-bet-v450; eBiosciences), cells were stimulated for 4-5 h with 50 ng/mL PMA and 750 ng/mL ionomycin (Sigma-Aldrich). Additional antibodies used include: CD127-PECy7 clone A019D5, CD25-APCCy7 clone BC96, CD4-APCCy7 OKT4, CD45RO-APC clone UCHL1, CD62L-FITC clone DREG-56, CD8-PerCPCy5.5 clone SKI, TIM3-PE clone F38-2E2 (biolegend); CCR7-PECy7 clone CCR7, CD8-V450 clone RPA-T8, PD1-FITC clone M1H4, (BD Biosciences). […] Data were analyzed with FlowJo software (TreeStar). […]

Wnt/β-catenin pathway = Wnt/β-catenin pathway expression in Th17 cells (Western blot, real-time PCR)
Protocol: Total RNA isolation was performed using the Trizol method (Life Technologies) according to the manufacturer's procedure. RNA quantity and purity was assessed using a NanoDrop ND-1000. 1 μg total RNA was transcribed with Transcriptor First Strand cDNA Synthesis Kit (Roche). qReal-time PCR was performed on LightCycler480 machine following manufacturer's protocols (Roche). Probes utilized include Rorc, IL-17, Cmaf IL-21, Cpt-1a, Tcf-7, Lef-1, Cnnb1. All probes are commercially available (ABI). Relative gene expression was determined by the comparative CT method (45). β-actin was used as housekeeping gene.
Nuclear and cytoplasmic protein were isolated by lysis using Nuclear and Cytoplasmic Extraction Reagent with Protease&Phosphatase Inhibitor Cocktail (ThermoScientific). Protein concentration was quantified using […] (ThermoScientific) according to the manufacturer's instructions. 10 to 30 μg of total protein was separated on a Mini-PROTEAN TGX, Any kD™ gel, followed by transfer onto PVDF membrane (Bio-Rad). The membranes were blocked with 5% BSA in TBS buffer containing 0.5% Tween20. The membranes were then incubated overnight at 4° C. with the primary antibodies to β-catenin (BD Bioscience), p110δ, Tcf7 (Abcam), RORγt (Affymetrix) phospho-Akt, total-Akt, STAT-3, Histone-3, Lef1 (abcam), and GAPDH (Cell Signaling) at the concentration recommended by manufactures. Subsequently, membranes were washed and incubated for 1 h at room temperature with (HRP)-conjugated goat antibodies to mouse or rabbit IgG (Cell Signaling). For detection of protein, chemiluminescence method was performed using Western ECL Blotting Substrate (Bio-Rad) followed by X-ray film-based imaging method (ThermoScientific). Quantification of optical density performed using Fiji analysis software (NIH).

COc1ccc2c(c1)c(CC(=O)O)c(C)n2C(=O)c1ccc(Cl)cc1 [Indo, indomethacin]
Th17 cell growth or survival [1]: did not impair
central memory phenotype (CD44^highCD62L^high) [2]: did not impact their memory phenotype
nuclear β-catenin after re-stimulation (Wnt/β-catenin pathway; antigen specific re-stimulation in vitro): re-expressed β-catenin to the level observed in un-treated ICOS stimulated Th17 cells
nuclear β-catenin expression (Wnt/β-catenin pathway; day 8, before re-stimulation / transfer): abolish β-catenin translocation to the nucleus
